According to the NIST ThermoML archive (doi:10.1016/j.tca.2017.12.024):
± gives the expanded uncertainty stated by the source.

How the values were obtained:
[1] = Molar enthalpy of transition or fusion; settings: Crystal; DSC
[2] = Crystal; DTA

Structure (SMILES)	Molar enthalpy of transition or fusion [1] [kJ/mol]	Normal melting temperature [2] [°C]
CCCCCCCCCC(=O)O [decanoic acid]	25 ± 5	32.00 ± 3
CCCCCCCCCCCC(=O)O [dodecanoic acid]	35.3 ± 7	43.60 ± 3
CCCCCCCCCCCCCCCC(=O)O [hexadecanoic acid]	52.8 ± 11	61.70 ± 3

Continued, values first:

Molar enthalpy of transition or fusion [1] [kJ/mol]	Normal melting temperature [2] [°C]	Structure (SMILES)
60 ± 12	68.40 ± 3	CCCCCCCCCCCCCCCCCC(=O)O [octadecanoic acid]
42.5 ± 8.4	54.70 ± 3	CCCCCCCCCCCCCC(=O)O [tetradecanoic acid]
